# Data published in US20070082856A1, “Combination therapy comprising the use of et-743 and doxorubicin for treating cancer” (Pharma Mar, S.A.U., priority 2003, published 2007).
# Key:
# [1] = system: human tumor xenografts, including melanoma and ovarian and breast carcinoma; settings: ET-743 alone; human tumor xenografts grown in athymic mice; cited from earlier work
# [2] = ET-743 with doxorubicin; tests on animal models; WO 0236135; cited from earlier work
# [3] = Phase I clinical trial (Example 1): pharmacokinetics of both drugs for the 2 sequences; type: in vivo, human; settings: for influence of order of administration on pharmacokinetics: ET-743 and Doxo, sequence A versus B; for comparison of the plasma disposition in patients receiving both sequences: ET-743 and doxorubicin, sequences A and B, cycle 1 and cycle 2
# Method: Pharmacokinetic [PK] of both drugs was determined for the 2 sequences at cycle 1 and cycle 2, when patients received the drugs in the reverse order of administration. Alternating sequence was discontinued at observation of dose limiting toxicity [DLT]: observation of grade 4 hematological toxicity for more than 3 days at the entry level. Both drugs were administered on day 1, with a 1 h interval between the 2 drugs (ET-743, 3-hr infusion i.v. and Doxo, 1-hr infusion i.v push with steroids & 5-HT3 antagonists as antiemetic prophylaxis). Oral steroids premedication for ET-743 was given 24 h before and for 48 h following the day of treatment. Doxo was administered at the fixed dose of 60 mg/m^2, while ET-743 was started at 600 μg/m^2 and escalated thereafter in subsequent cohorts of at least 3 new cases. Patients continued treatment until progressive disease (PD) or intolerance, and were restaged every 2 cycles for activity.
# [4] = human, in vivo
# [5] = system: transplanted human sarcomas; settings: ET-743 and doxorubicin; mice with transplanted human sarcomas; Meco et al. 2003; cited from earlier work
# [6] = system: untreated metastatic soft tissue sarcomas (STS) and advanced pre-treated anthracyline-naïve breast cancer (ABC); experiment: Phase I clinical trial (Example 1): antitumor activity of ET-743 in combination with doxorubicin; type: in vivo, human
# Method: In this multicenter dose and LTS finding trial, patients were assigned consecutively to start either with sequence A (ET-743 before Doxo) or with the reverse sequence (B) at the following dose levels every 21 days: […] Oral steroids premedication for ET-743 was given 24 h before and for 48 h following the day of treatment. […] Patients continued treatment until progressive disease (PD) or intolerance, and were […] 2 cycles for activity. In this study, 22 patients were enrolled and evaluable. The patients were required to have normal liver, renal, cardiac and haematologic functions and good performance status for entry into the study. Enrolment was restricted to breast cancer and soft tissue sarcoma.
# [7] = system: sarcoma and breast and ovarian carcinoma; settings: ET-743 alone; phase I intravenous infusion schedules; cited from earlier work
# [8] = system: sarcoma cell line; settings: ET-743 and doxorubicin, Meco et al. 2003; cited from earlier work
# [9] = Phase I clinical trial (Example 2): safety profile and DLT of ET-743 days 1 and 8 with doxorubicin day 1; settings: fixed Doxo dose day 1 with ET-743 700 μg/m^2 days 1 and 8, every 21 days
structure (smiles),measurement,setting,value
"COc1cc2c(cc1O)CCN[C@]21CS[C@@H]2c3c(OC(C)=O)c(C)c4c(c3[C@H](COC1=O)N1[C@@H]2[C@H]2c3c(cc(C)c(OC)c3O)C[C@@H]([C@@H]1O)N2C)OCO4 [ET-743, ecteinascidin 743]",antineoplastic activity,[1],potent antineoplastic activity
same,effect of the combination,[2],synergistic effect
same,influence of order of administration on pharmacokinetics,[3],did not influence the pharmacokinetics
same,comparison of the plasma disposition in patients receiving both sequences,[3],did not reveal any significant pharmacokinetic interaction
same,tolerability of the combination,[4],tolerable and feasible
same,effect of the combination,[5],additive effect
same,antitumor activity,[6]; 600-700 μg/m^2 of ET-743 in combination with Doxo,Antitumor activity was observed
same,patients with confirmed partial response (PR),"[6]; all ET-743 dose levels + Doxo 60 mg/m^2, 22 evaluable patients",5 pts
same,antitumor activity of the combination,"[6]; combination of ET-743 and doxorubicin, phase I clinical trials",evidence of antitumor activity
same,responses in patients,[7],Promising responses
same,effect of the combination,[8],additive effect
COc1cccc2c1C(=O)c1c(O)c3c(c(O)c1C2=O)C[C@@](O)(C(=O)CO)C[C@@H]3O[C@H]1C[C@H](N)[C@H](O)[C@H](C)O1 [doxorubicin],influence of order of administration on pharmacokinetics,[3],did not influence the pharmacokinetics
same,comparison of the plasma disposition in patients receiving both sequences,[3],did not reveal any significant pharmacokinetic interaction
same,"MTD, Doxo part",[9],50 mg/m^2
